Active and inactive are the calls of the source.

The target of assay [1] is T1, Cytochrome P450 1A2 (Homo sapiens, UniProt P05177).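 Note: PubChem cytochrome P450 panel assay, CYP1A2 panel member.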
T1 sequence (P05177 whole entry): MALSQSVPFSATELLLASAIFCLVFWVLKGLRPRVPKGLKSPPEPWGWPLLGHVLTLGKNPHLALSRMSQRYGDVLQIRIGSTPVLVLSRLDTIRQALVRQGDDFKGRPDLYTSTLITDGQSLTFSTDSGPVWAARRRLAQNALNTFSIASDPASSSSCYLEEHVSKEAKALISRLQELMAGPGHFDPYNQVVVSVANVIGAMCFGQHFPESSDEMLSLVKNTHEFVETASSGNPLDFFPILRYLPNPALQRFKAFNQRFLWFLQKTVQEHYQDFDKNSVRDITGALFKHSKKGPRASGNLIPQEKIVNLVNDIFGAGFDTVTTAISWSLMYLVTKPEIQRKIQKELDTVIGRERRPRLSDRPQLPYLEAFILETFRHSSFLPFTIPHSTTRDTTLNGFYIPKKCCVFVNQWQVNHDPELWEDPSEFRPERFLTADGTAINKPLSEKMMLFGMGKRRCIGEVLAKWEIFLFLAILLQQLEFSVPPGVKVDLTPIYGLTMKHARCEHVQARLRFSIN

Assay [2] concerns the target T2, Protein RecA (Mycobacterium tuberculosis, UniProt P9WHJ3).
T2 sequence (P9WHJ3 whole entry): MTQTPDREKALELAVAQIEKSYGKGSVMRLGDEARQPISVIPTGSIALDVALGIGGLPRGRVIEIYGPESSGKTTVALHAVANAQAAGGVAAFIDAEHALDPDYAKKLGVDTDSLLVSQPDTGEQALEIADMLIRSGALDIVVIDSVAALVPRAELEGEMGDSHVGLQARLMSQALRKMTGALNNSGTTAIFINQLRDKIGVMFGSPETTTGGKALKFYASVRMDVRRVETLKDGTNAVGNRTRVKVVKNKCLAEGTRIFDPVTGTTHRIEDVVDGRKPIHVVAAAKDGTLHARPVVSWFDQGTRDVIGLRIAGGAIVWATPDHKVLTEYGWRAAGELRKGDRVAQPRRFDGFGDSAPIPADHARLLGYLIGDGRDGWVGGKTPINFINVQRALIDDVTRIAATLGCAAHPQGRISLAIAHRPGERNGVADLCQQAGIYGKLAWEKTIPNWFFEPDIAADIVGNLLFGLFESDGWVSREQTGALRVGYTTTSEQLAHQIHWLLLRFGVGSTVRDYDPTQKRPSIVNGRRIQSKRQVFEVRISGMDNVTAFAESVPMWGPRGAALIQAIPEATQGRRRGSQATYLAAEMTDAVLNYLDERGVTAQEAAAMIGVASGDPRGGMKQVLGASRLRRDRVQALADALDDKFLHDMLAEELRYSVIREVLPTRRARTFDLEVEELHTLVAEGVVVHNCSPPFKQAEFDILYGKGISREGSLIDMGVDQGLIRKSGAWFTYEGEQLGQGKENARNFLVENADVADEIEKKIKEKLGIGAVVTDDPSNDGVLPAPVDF
Put plainly: Fluorescence Cell-Free Homogeneous Dose Retest to Identify Inhibitors of RecA-Intein Splicing Activity. [Related pubchem assays (depositor defined):AID2097, AID2223, AID489010, AID492950]. In kind it is functional.

In assay [3] the target is T3, Replicative DNA helicase DnaB (Mycobacterium tuberculosis, UniProt P9WMR3).
T3 sequence (P9WMR3 whole entry): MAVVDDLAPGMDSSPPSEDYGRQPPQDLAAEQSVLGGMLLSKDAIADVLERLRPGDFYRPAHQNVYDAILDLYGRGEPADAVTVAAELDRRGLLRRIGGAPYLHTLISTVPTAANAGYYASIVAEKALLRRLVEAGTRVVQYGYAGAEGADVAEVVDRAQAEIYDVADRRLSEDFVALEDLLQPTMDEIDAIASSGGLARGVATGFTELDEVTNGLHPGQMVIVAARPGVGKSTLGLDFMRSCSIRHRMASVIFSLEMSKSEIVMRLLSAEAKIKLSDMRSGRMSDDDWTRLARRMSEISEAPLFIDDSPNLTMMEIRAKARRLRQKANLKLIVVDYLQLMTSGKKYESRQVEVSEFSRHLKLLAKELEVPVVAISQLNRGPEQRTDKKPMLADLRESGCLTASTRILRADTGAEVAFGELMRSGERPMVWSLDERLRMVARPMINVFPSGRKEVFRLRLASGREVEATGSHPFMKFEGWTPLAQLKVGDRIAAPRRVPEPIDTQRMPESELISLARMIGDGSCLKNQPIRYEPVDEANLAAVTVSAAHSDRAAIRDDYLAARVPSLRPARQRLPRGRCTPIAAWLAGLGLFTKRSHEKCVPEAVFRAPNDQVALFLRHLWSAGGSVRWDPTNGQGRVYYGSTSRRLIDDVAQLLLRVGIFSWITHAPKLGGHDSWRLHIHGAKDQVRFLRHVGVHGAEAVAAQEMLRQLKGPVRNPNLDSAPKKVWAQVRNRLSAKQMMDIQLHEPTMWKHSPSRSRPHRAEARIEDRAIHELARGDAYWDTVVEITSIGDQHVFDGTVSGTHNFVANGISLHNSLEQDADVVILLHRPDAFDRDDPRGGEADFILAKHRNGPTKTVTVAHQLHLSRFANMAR
Put plainly: DnaB intein splicing inhibitors, dose response, biochemical, cell-free fluorescence (AID 449749). In kind it is functional.

For assay [4], the target named is T4, Corticotropin-releasing factor receptor 2/Corticotropin-releasing factor-binding protein (Homo sapiens, UniProt P24387+Q13324).
T4 sequence (Q13324 whole entry): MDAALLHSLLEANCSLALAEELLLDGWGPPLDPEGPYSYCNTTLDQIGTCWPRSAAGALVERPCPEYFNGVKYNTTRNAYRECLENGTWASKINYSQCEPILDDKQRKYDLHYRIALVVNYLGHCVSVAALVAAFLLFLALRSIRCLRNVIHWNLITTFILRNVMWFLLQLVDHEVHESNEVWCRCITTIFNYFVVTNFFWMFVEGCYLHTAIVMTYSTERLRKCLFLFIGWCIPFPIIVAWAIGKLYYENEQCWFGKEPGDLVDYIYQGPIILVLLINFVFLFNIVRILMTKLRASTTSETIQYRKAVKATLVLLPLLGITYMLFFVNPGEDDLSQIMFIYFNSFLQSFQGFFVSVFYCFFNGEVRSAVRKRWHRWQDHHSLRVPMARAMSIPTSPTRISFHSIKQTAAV
T4 sequence (P24387 whole entry): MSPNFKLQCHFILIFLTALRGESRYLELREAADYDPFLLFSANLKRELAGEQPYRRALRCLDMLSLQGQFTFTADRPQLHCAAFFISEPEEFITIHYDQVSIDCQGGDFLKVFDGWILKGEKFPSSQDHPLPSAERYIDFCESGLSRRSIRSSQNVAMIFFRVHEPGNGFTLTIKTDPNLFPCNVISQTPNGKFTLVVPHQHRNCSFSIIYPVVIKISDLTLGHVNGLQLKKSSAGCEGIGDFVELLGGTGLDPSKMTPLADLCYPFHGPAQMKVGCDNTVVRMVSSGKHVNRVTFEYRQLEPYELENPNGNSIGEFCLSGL
Nature of the assay: activators of CRF receptor 2 with binding protein – uHTS hits, confirmation (AID 602473). The following applies: read-out: EC50_Mean. In kind it is functional.

The target in assay [5] is Cytochrome P450 2D6 (Homo sapiens, UniProt P10635).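 Note: CYP2D6 member of a cytochrome P450 panel assay.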
Cytochrome P450 2D6, sequence (P10635 whole entry): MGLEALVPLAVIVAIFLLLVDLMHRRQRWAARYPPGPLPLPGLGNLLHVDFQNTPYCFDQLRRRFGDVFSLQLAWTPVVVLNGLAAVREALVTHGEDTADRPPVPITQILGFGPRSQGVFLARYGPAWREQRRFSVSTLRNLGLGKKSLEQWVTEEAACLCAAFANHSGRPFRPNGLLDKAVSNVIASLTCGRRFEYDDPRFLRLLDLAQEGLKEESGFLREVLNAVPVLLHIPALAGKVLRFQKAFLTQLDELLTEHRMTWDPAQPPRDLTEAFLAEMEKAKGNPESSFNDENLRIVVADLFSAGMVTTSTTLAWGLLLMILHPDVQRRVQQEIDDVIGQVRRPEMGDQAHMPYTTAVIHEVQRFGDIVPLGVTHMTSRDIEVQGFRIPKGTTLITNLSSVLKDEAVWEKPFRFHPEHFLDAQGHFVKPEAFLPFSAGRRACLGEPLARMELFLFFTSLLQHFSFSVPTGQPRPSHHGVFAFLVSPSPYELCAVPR
The target of assay [6] is Cytochrome P450 3A4 (Homo sapiens, UniProt P08684).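 Note: CYP3A4 tested as one member of a cytochrome P450 panel screen.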
Cytochrome P450 3A4, sequence (P08684 whole entry): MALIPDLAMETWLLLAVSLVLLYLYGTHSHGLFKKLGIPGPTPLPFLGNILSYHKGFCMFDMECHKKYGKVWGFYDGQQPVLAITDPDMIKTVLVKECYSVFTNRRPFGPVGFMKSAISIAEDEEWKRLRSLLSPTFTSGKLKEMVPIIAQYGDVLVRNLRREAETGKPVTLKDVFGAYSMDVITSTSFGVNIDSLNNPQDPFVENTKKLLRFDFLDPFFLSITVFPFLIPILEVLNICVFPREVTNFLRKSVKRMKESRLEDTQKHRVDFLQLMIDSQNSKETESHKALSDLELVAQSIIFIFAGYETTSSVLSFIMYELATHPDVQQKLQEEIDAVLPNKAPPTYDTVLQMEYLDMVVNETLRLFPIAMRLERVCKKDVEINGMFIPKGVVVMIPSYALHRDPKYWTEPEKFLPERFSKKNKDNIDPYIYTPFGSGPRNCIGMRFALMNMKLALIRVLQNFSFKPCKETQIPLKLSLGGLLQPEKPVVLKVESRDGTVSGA
Assay [7] in a line: cytotoxicity toward NIH3T3 fibroblasts, dose response, counter-screen, cell-based, ATP luminescence, mouse fibroblasts (AID 2010).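 Note: cells exposed to compound for about 90 hours before reading.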 The assay is classed as functional. (A counterscreen serves to expose hits that act by an unwanted route or on another target.)
Assay [8] is described as follows: inhibitors of intracellular T. cruzi replication, confirmation, NIH3T3 host cells, beta-gal luminescence (AID 2044).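 Note: intracellular parasites grown in NIH/3T3 mouse fibroblasts as host cells; luminescent beta-galactosidase reporter signal from transgenic T. cruzi replicating inside host cells; inhibitors lower the luminescence signal.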 In kind it is functional, cell-based.
The target of assay [9] is T5, Heat shock factor protein 1 (Mus musculus, UniProt P38532).
T5 sequence (P38532 whole entry): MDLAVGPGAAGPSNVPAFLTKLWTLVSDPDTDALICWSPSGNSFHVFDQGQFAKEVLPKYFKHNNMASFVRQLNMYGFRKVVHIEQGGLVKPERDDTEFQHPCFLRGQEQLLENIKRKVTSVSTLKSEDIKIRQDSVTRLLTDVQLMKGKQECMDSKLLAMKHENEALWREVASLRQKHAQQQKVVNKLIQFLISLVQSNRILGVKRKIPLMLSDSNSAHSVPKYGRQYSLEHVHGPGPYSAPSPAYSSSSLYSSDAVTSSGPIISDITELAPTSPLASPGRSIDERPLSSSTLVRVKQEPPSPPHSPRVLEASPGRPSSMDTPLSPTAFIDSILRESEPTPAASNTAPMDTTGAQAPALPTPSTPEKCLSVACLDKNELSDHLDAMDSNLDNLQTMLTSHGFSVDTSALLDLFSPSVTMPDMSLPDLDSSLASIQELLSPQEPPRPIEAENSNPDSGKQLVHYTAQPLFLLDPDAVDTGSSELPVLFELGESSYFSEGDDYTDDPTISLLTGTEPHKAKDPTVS
Nature of the assay: inhibition of MG132-induced HSE-luciferase signal, confirmation, cell-based, NIH3T3, luminescence, dose retest (AID 2382).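 Note: NIH3T3 fibroblasts with HSF1-driven luciferase reporter stressed by proteasome inhibitor MG132; luminescence from HSF1-driven luciferase expression after 8 hours of MG132 stress.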 In kind it is functional.

In general, AC50 refers to the concentration giving half of the maximal activity seen. For `NS(=O)(=O)c1cc2c(cc1Cl)N[C@H](Cc1ccccc1)NS2(=O)=O`, the AC50 in assay [1] is 3.16 µM (inconclusive).
Take `CC(C)Cn1c(N)c(S(=O)(=O)c2cccs2)c2nc3ccccc3nc21`: the EC50 in assay [2] is 32.9 µM (inconclusive). Also, the AC50 in [3] is > 380 µM (inactive).
On to `N#Cc1ccc(CC(=O)c2ccccc2)[nH]c1=O`, for which, in assay [4], the EC50 is 12.2 µM (active).
As to `N#CC1(C#N)CC(C=O)=C(N)C1(C#N)CC(=O)C12CC3CC(CC(C3)C1)C2` (stereo unspecified), in assay [2], the EC50 is 10 µM (active). Moreover, the AC50 in assay [3] is > 380 µM (inactive).
In the case of `CN1CCC(n2[nH]c(-c3ccccc3)c(Cc3ccccc3)c2=O)CC1` [BENZPIPERYLON], the AC50 is 1.58 µM (inconclusive) in assay [1] and 3.16 µM (inconclusive) in assay [5].
With `COC(=O)[C@@]1(Cc2ccccc2)[C@H]2c3cc(C(=O)N4CCCC4)n(Cc4cccc5ccccc45)c3C[C@H]2CN1C(=O)c1ccccc1`, the AC50 in assay [1] is 15.8 µM (inconclusive).
With `O=C(Cc1cc(O)n[nH]1)N/N=C/c1ccccc1[N+](=O)[O-]`, the EC50 in assay [2] was 1.73 µM (active). For the same molecule, the AC50 in assay [3] was 4.19 µM (active).
In the case of `Cc1ccc(C2(c3ccc(C)c(O)c3C)CCN(C)CC2)c(C)c1O`, the AC50 in [1] was 5.01 µM (inconclusive).
With `Cc1ccc(C(=O)NC(C#N)=C(Cl)Cl)cc1`, the EC50 in assay [2] was 19.5 µM (active). For the same molecule, the AC50 in [3] was 27.1 µM (active).
Take `CCOc1ccc(CN(C)C(=O)CCl)cc1`: the EC50 in [2] is 4.09 µM (active). Moreover, in assay [3], the AC50 is > 380 µM (inactive).
Turning to `CC(C)[C@@H]1[C@H]2CC[C@H](C2)[C@H]1N`, the AC50 in assay [6] is 15.8 µM (inconclusive); in assay [1], 31.6 µM (inconclusive).
Taken in the same sequence, the figures for `CN1CCN(c2ncc3nc(-c4cccs4)c(=O)n(CCC#N)c3n2)CC1` were 31.6 µM (inconclusive) and 15.8 µM (inconclusive).
For the molecule `Cc1cc(C(=O)CCl)c(C)n1CC1COc2ccccc2O1` (stereo unspecified), the EC50 in assay [7] was 4.42 µM (active); in assay [8], 1.81 µM (active); in assay [2], 13.5 µM (active). The AC50 in [3] is 21.7 µM (active).
Regarding `Cc1nn(-c2ccccc2)c2c1C(c1ccc(F)cc1F)C(C#N)=C(N)O2` (stereo unspecified), the EC50 in assay [2] is 3.5 µM (active). In addition, in [3], the AC50 was 7.25 µM (active).
Turning to `O=C(Nc1cccc(F)c1)N1CC[C@@]2(CCCN(C(=O)c3ccco3)C2)C1`, the AC50 is 10 µM (inconclusive) in assay [6] and 25.1 µM (inconclusive) in assay [1].
As for `N#Cc1c(SCC(N)=O)nsc1SCc1ccccc1Cl`, the AC50 in [6] was 10 µM (inconclusive); in assay [1], 4.47 µM (inconclusive).
For the molecule `Cc1ccc(C(=O)N/C(=C\c2ccc(Br)cc2)c2n[nH]c(S)n2)cc1`, the EC50 in assay [9] is > 195 µM (not active). The AC50 in [5] was 31.6 µM (inconclusive).
Turning to `COC(=O)c1ccccc1Oc1c(F)c(F)nc(N2CCOCC2)c1F`, the AC50 was 28.2 µM (inconclusive) in [1] and 35.5 µM (inconclusive) in assay [5].
Turning to `Cc1ccsc1/C=N/NC(=O)Cc1cc(O)[nH]n1`, the EC50 in [2] was 1.28 µM (active). Besides, in [3], the AC50 is 1.68 µM (active).
The like results for `Cc1ccc(C2CC(c3cccs3)=NN2C(=O)CSC2=NCCS2)cc1` (stereo unspecified) were, in that order, 6.68 µM (active) and 6.2 µM (active).
Taken in the same sequence, the figures for `CCOC(=O)N1C(=O)[C@](c2ccc(Cl)cc2)(C(C)C)N1C(=O)OCC` were 3.34 µM (active) and 3.09 µM (active).
Take `COc1ccc(N(C(=O)c2ccco2)S(=O)(=O)c2cccs2)cc1`: the EC50 in assay [2] is 32.6 µM (active). For the same molecule, the AC50 in assay [3] was 38.1 µM (active).
Turning to `Cn1cc(-c2nc3cnc(Oc4cccc(Cl)c4)nc3n(C3CC3)c2=O)c2ccccc21`, the AC50 in assay [1] is 12.6 µM (inconclusive).
On to `CCOC(=O)N1CCN(Cc2nc3c(c(=O)n(C)c(=O)n3C)n2Cc2ccccc2)CC1`, for which the EC50 in assay [9] is given as > 195 µM (not active).
For the molecule `CCOC(=O)CSCCOc1ccc(C=C2C(=O)NC(=O)NC2=O)cc1OC`, the EC50 in assay [2] is > 380 µM (inactive). The AC50 in assay [3] was 46.6 µM (active).

Values taken from ChEMBL document CHEMBL1201862, “PubChem BioAssay data set” (2004).
